According to patent US10550142B2, “Quercetin-based compound” (AMOREPACIFIC CORPORATION, priority 2016, dated 2020):

Target: T1, β-amyloid (Aβ1-42) (Homo sapiens, UniProt P05067)
T1 construct: β-amyloid (Aβ1-42, AnaSpec Inc, USA) was obtained; purchased AnaSpec Inc, USA
Assay: Beta-amyloid aggregation inhibition, fluorescence analysis (Thioflavin T assay)
Type: biochemical
Details: compound 10 μM; for Increased RFU (amount of aggregated β-amyloid): Aβ1-42 0.1 mg/ml, 37° C., 150 minutes; for Increased RFU (% of Pos.Cont.): aggregated β-amyloid compared to the positive control (no compound) = 100; for decreased aggregation compared with the positive control: positive control taken as 100%
Description: The beta-amyloid aggregation inhibitory effect of quercetin 3-O-[3-O″-(E)-p-coumaroyl][β-D-glucopyranosyl-(1→3)-O-α-L-rhamnopyranosyl-(1→6)-O-β-D-glucopyranoside] and quercetin 3-O-[3-O″-(E)-p-coumaroyl][α-L-rhamnopyranosyl-(1→6)-O-β-D-glucopyranoside] was determined by fluorescence analysis (Thioflavin T assay). Specifically, β-amyloid (Aβ1-42, AnaSpec Inc, USA) was obtained and used at a concentration of 0.1 mg/ml. It was stored at −80° C. prior to use. Each of morin (20 μM), phenol red (20 μM), quercetin 3-O-[3-O″-(E)-p-coumaroyl][β-D-glucopyranosyl-(1→3)-O-α-L-rhamnopyranosyl-(1→6)-O-β-D-glucopyranoside] (1 mg/ml), and quercetin 3-O-[3-O″-(E)-p-coumaroyl][α-L-rhamnopyranosyl-(1→6)-O-β-D-glucopyranoside] (1 mg/ml) was diluted to these concentrations in DMSO. In order to determine the degree of inhibition of Aβ1-42 aggregation, each compound at the above concentration was diluted to 10 μM in 50 μL of 0.01 M sodium phosphate buffer solution. Then, 40 μL of 0.1 mg/ml Aβ1-42 was added thereto, followed by addition of 10 μL of 2 mM Thioflavin T. The fluorescence was then measured with a fluorescence spectrometer (RF-5300PC, SHIMADZU CORPORATION, Japan) at 37° C. and intervals of 5 minutes for 150 minutes. In the table above, “RFU” denotes relative fluorescence unit, and “increased RFU” indicates the amount of aggregated β-amyloid. “Increased RFU (% of Pos.Cont.)” indicates the percentage of aggregated β-amyloid compared to the positive control. “Novel substance 31” indicates quercetin 3-O-[3-O″-(E)-p-coumaroyl][β-D-glucopyranosyl-(1→3)-O-α-L-rhamnopyranosyl-(1→6)-O-β-D-glucopyranoside], and “novel substance 32” indicates quercetin 3-O-[3-O″-(E)-p-coumaroyl][α-L-rhamnopyranosyl-(1→6)-O-β-D-glucopyranoside].

T1 sequence (P05067 672-713 limits assumed): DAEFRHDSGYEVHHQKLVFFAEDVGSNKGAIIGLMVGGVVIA

Increased RFU (amount of aggregated β-amyloid) [RFU] | Increased RFU (% of Pos.Cont.) [%] | decreased aggregation compared with the positive control [%] | SMILES
12955 | 88.8 | 11.2 | CC1OC(OCC2OC(Oc3c(-c4ccc(O)c(O)c4)oc4cc(O)cc(O)c4c3=O)C(O)C(OC(=O)/C=C/c3ccc(O)cc3)C2O)C(O)C(OC2OC(CO)C(O)C(O)C2O)C1O [Novel substance 31, quercetin 3-O-[3-O″-(E)-p-coumaroyl][β-D-glucopyranosyl-(1→3)-O-α-L-rhamnopyranosyl-(1→6)-O-β-D-glucopyranoside]]
12148 | 83.2 | 16.8 | CC1OC(OCC2OC(Oc3c(-c4ccc(O)c(O)c4)oc4cc(O)cc(O)c4c3=O)C(O)C(OC(=O)/C=C/c3ccc(O)cc3)C2O)C(O)C(O)C1O [Novel substance 32, quercetin 3-O-[3-O″-(E)-p-coumaroyl][α-L-rhamnopyranosyl-(1→6)-O-β-D-glucopyranoside]]
